This note sets out measurements from patent US20160228444A1, “NUCLEOSIDE ANALOGS AND USES THEREOF” (Ramot at Tel-Aviv University Ltd., priority 2015, published 2016).

Series [1] relates to U251 MG human glioma cells. Briefly: FACS viability, annexin V-FITC / PI. It is filed as cell-based. On the procedure:
(§1) Cell viability by flow cytometry analysis (FACS) analysis was determined using the Mebcyto apoptosis kit (MBL-Japan). The cell lines 4T1, U251 (2×10^5 cells/well), astrocytes and the cardiomyoblastic cell line H9C2 (5×10^5 cells/well) were seeded in six-well plates. Following treatment they were trypsinized, washed with PBS, resuspended in […] of binding buffer and double-stained with annexin V-FITC and propidium iodide (PI) according to the manufacturer's instructions. The stained cells were subjected to FACS analyses (Calibur cytometer, Becton Dickinson) where 30,000 cells were allowed to flow for each determination point and the percentage of cells in each state (viability or death) was defined by their distribution in fluorescence dot-plots using WinMdi 2.8 software (Scripps Research Institute, La-Jolla, USA).
(§2) The apoptotic effect of AN446, Dox and their combination was evaluated in U251 and 4T1 cancer cells, and in the non-cancerous rat cardiomyoblast cell line (H9C2) and in primary rat astrocytes, using procedures previously described for AN7 [Tarasenko et al., Invest New Drugs 2012, 30:130-143].

The subject of series [2] is murine mammary carcinoma 4T1. Briefly: FACS viability, annexin V-FITC / PI. Type of series: cell-based. Conditions: AN446 24 h; 200 nM Dox 5 h; combination compared to Dox alone; FIG. 1C. The procedure:
as §1, §2

Another series has as its system H9C2 cardiomyoblasts. It is filed as cell-based, rat. On the procedure: as §1, §2
For another series, the system named is bFGF. Description: bFGF protein and mRNA in tumor and heart of xenograft mice (Western blot, qRT-PCR). It is filed as in vivo. Conditions: for expression of mouse bFGF protein in the heart: FIG. 4D; for expression of bFGF in tumors / bFGF mRNA in the tumor: tumor; for bFGF mRNA in the tumor: FIG. 6. The procedure: Tumors and hearts of the mice were rapidly removed, frozen on dry ice and kept at −70° C. Tissue was then homogenized and RNA and proteins extracted using the NucleoSpin® RNA/Protein kit according to the manufacturer's protocol (Macherey-Nagel, GmbH & Co KG).
Total RNA ([…]) was primed by oligo dT and reverse-transcribed by Verso cDNA kit according to the manufacturer's protocol (Thermo Scientific). Analyses of qPCR were performed with Kapa Sybr® Fast (Kapa Biosystems) on a Step One Plus thermocycler (Applied Biosystems). The comparative threshold method was used to calculate the relative gene expression. Values were normalized against glyceraldehyde 3-phosphate dehydrogenase (GAPDH). Expression of the GAPDH mRNA in each individual sample was used to normalize the dataset. The sequences of the primers were as follows: […]
Protein levels in the samples were determined with the BCA protein assay kit (Pierce). The samples were subjected to Western blot analyses. The expression of proteins was visualized using their specified primary antibodies followed by the secondary IgG IRDye® 680DX antibody. Each detected band was quantified using the Odyssey Infrared Imaging System (LI-COR Biosciences) and normalized to the level of actin. The fold increase of a specific protein was determined by the ratio of the band intensity obtained from treated and untreated samples.
The pro-angiogenic factors basic fibroblast growth factor (bFGF) and vascular endothelial growth factor (VEGF) are potent angiogenic stimulators. The expression of bFGF in the tumor and in the heart was evaluated by Western blot and qRT-PCR analyses and expression of VEGF by IHC.
(In general: Immunoblotting shows a protein as a band on a membrane.)

For another series, the system named is MCP-1. Description: MCP-1 gene expression in MDA-MB-231 cells (qRT-PCR). Conditions: combination with paclitaxel, FIG. 7C. It is filed as cell-based, human. On the procedure: The effect of AN446 on inflammation-associated pathways was evaluated in the monocytic THP1 cell line and in the MDA-MB-231 breast carcinoma cell line. Supernatants of treated THP1 cells were collected and IL-6, IL-10 and TNF-α concentrations were quantified by ELISA (R&D systems). TLR4 expression in THP1 cells was assessed using fluorescent anti-TLR4 antibodies and FACS analysis. In addition, gene expression for MCP-1, TNF-α and TLR4 in MDA-MB-231 was evaluated by qRT-PCT, following treatment with AN446 and/or paclitaxel.
On the technique in general: Quantitative PCR measures a nucleic acid by following its amplification.

The subject of another series is Hut-78 CTLC cell line. Description: MTT cell viability assay, 48 hours. It is filed as cell-based, human. The procedure: (§3) The MyLa CTLC cell line (originating from an indolent mycosis fungoides patient) and the Hut-78 CTLC cell line (originating from an aggressive Sézary patient) were used to evaluate toxicity towards cancer cells, and peripheral blood lymphocytes (PBLs) from healthy volunteers were used to evaluate toxicity towards noncancerous cells.
(§4) Cell viability was determined by an MTT cell viability assay after 48 hours. MyLa cells (10^4 cells/well), Hut78 cells (5×10^3 cells/well) and normal PBLs (10^5 cells/well) were seeded in 96 well-plates. The PBLs were activated with 40 μg/10^6 cells of phytohemagglutinine (PHA) for 24 h before the experiment.
On the technique in general: Tetrazolium dyes change colour on reduction, which living cells bring about.

For another series, the system named is MyLa CTLC cell line. Briefly: MTT cell viability assay, 48 hours. It is filed as cell-based, human. The procedure:
as §3, §4

The subject of a further series is HUT-78 CTCL cells. Description: Median-effect drug interaction, MTT viability, 72 h. The settings on record: Homo sapiens. It is filed as cell-based, human. On the procedure: as §4
The ratios of the drug combination were based on the ratio of their IC50 of each drug alone. Cell viability was determined by MTT assay, as described hereinabove. The drugs were added to the cells and incubated for 72 h.

Series [3] deals with acetylated H3 histone in H9C2 cardiomyoblasts. Description: Histone H3 acetylation (Western blot), 24 hours. Type of series: cell-based, rat. Conditions: FIG. 12. On the procedure: The effects of the abovementioned HDAC inhibitors on histone acetylation were also compared. U251 and H9C2 cells were treated with the HDAC inhibitors for 24 hours (according to procedures described hereinabove with respect to FIGS. 9 and 10), and then subjected to Western blot analysis.

The subject of another series is pH2AX in U251 cells. Description: Phosphorylated H2AX (Western blot), 24 or 48 hours. The settings on record: FIG. 13A. Type of series: cell-based, human. The procedure:
(§5) The effects of the abovementioned HDAC inhibitors on DNA damage and repair were then assessed by evaluating changes in levels of phosphorylated histone H2AX (pH2AX), a marker of DNA double-strand breaks, and Rad51, a marker of homologous recombination-guided DNA repair of double-strand breaks [Nagathihalli & Nagaraju, Biochim Biophys Acta 2011, 1816:209-218; Rogakou et al., J Biol Chem 1998, 273:5858-5868].
(§6) U251 and H9C2 cells were treated with the HDAC inhibitors for 24 or 48 hours, and then subjected to Western blot analysis.

In a further series the test system is Rad51 in U251 cells. Briefly: Rad51 (Western blot), 24 or 48 hours. Type of series: cell-based, human. Conditions: FIG. 14A. The procedure:
as §5, §6

By IC50 is commonly meant the point on the concentration scale where inhibition reaches its midpoint.

Entries after “also recorded” stand apart in the source; their conditions may differ. Like-named read-outs stand apart in the source and are kept apart here.

Turning to `CCCC(CCC)C(=O)Nc1nc2c(ncn2COCCOC(=O)C(CCC)CCC)c(=O)[nH]1` [AN446, N-valproyl-9-(2-valproyloxy)ethoxymethyl-guanine], the “cell death in U251 glioblastoma cells” value in series [1] (24, 48 or 72 hours, each inhibitor at its U251 IC50, FIG. 9, listed as valprostat) is reported as “effective at inducing cell death in glioblastoma cells after 24, 48 or 72 hours; also recorded: particularly more effective than the other tested HDAC inhibitors at inducing cell death after 24 hours”. The “viability / mortality of U251 cells” value in series [1] (AN446 24 h, 200 nM Dox 5 h, combination compared to Dox alone, FIG. 1C) is given as “significantly enhanced the mortality”. Also, the “therapeutic index (ratio of cancer cell mortality to cardiomyoblast mortality)” value in [1] (U251 vs H9C2, at each time point (24, 48, 72 hours), FIG. 11) is on record as “more than 2”. Further, the “viability / mortality of 4T1 cells” value in series [2] is given as “significantly enhanced the mortality”. In addition, the “cell death in H9C2 cardiomyoblasts” value with H9C2 cardiomyoblasts (24, 48 or 72 hours, each inhibitor at its U251 IC50, FIG. 10) is reported as “did not induce significant cardiomyocyte cell death”. Also, in the series on H9C2 cardiomyoblasts (noncancerous cells, combination compared to Dox alone, FIG. 1C), the “viability / mortality of H9C2 cells” value is “did not substantially affect the viability”. The figures for the “expression of mouse bFGF protein in the heart” value with bFGF (co-treatment with Dox) and in the series on bFGF (single agent) were “significantly increased its expression to a level higher than that observed in naive or vehicle-treated mice” and “unchanged”, respectively. Besides, the “expression of bFGF in tumors” value in the series with bFGF (combination with Dox) is recorded as “further diminished”; in the series on bFGF (single agent, FIGS. 4A, 4B) it was “decreased significantly”. The “bFGF mRNA in the tumor” value with bFGF (combined treatment with Dox) is on record as “suppressed it significantly further”; in the series with bFGF (single agent), “significantly reduced the bFGF mRNA”. Further, in the series with MCP-1, the “paclitaxel-induced increase in expression of MCP-1” value is recorded as “significantly attenuated”. Further, the IC50 was determined as 21 ± 1.3 µM in the series on Hut-78 CTLC cell line (Homo sapiens, HuT78, 48 h, read-out: IC50 HUT78); 40 ± 2.3 µM with MyLa CTLC cell line (Homo sapiens, 48 h, read-out: IC50 MyLa); 28 µM in the series on HUT-78 CTCL cells (HuT78, HUT-78, single agent, Table 2); 11 µM in the series with HUT-78 CTCL cells (HuT78, read-out: com IC50, HUT-78, in combination with Dox). Also, the “toxicity to Hut-78 cells relative to normal PBLs” value with Hut-78 CTLC cell line (from Table 1 IC50 values) was “about 10 fold”. Moreover, the “toxicity to MyLa cells relative to normal PBLs” value with MyLa CTLC cell line (from Table 1 IC50 values) is “about 5 fold”. The “histone acetylation in H9C2 cardiomyocytes” value in series [3] is “not in non-cancerous cardiomyocytes”. The “pH2AX levels in U251 cancer cells” value with pH2AX in U251 cells is reported as “considerably more effective than the other HDAC inhibitors at increasing pH2AX levels after 48 hours”. Besides, the “expression of Rad51 in U251 cancer cells” value in the series with Rad51 in U251 cells is “reduced expression of Rad51”.
